# Results taken from US11596639B2, “Substituted indole Mcl-1 inhibitors” (Vanderbilt University, priority 2016, dated 2023).
# Like-named read-outs stand apart in the source and are kept apart here.
# Assays:
# Mcl-1 = Mcl-1 (Homo sapiens (Human), UniProt Q07820); assay: TR-FRET binding assay, FITC-Bak peptide and MBP-tagged Mcl-1; conditions: read-out: Ki for Inhibition of Mcl-1 by TR-FRET assay
# Method: Compounds are diluted in DMSO in a 16-point, semilog serial dilution scheme. […] The plate was mixed and incubated for 3 hours at room temperature. […] TR-FRET signal is plotted and IC50 and Ki values are calculated in the same manner as the fluorescence polarization anisotropy based competition assays.
# [1] = system: H929 human cancer cell lines; assay: Cellular viability / proliferation (Cell TiterGlo, 72 h); format: cell-based
# Summary of the method: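 H929 cells plated at 1,000/well in 10% FBS medium received a 2-fold serial compound dilution (top 50 μM, DMSO <1%) 24 h later. After 72 h, viability was read by CellTiter-Glo luminescence. IC50 came from a four-parameter fit.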
# [2] = Homo sapiens, NCI-H929, 72 h, read-out: GI50 on cellular proliferation of H929 human cancer cell lines, H929 cells, 72 h, Cell TiterGlo, 10% FBS
# Sequence of Mcl-1 (Q07820 172-327): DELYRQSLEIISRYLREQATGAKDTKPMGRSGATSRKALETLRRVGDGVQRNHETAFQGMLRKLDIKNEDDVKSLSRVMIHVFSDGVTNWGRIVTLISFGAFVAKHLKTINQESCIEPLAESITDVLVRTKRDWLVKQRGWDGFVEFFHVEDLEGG
smiles,measurement,setting,value
"Cc1cc(N2C[C@@H](C)n3c(c(CCCOc4cc(C)c(Cl)c(C)c4)c4ccc(Cl)c(-c5c(C)nn(C)c5C)c43)C2=O)c2c(c1)cc(C(=O)O)n2Cc1cc(N2CCN(C)CC2)ccn1 [Example 515, (R)-7-(7-Chloro-10-(3-(4-chloro-3,5-dimethylphenoxy)propyl)-4-methyl-1-oxo-6-(1,3,5-trimethyl-1H-pyrazol-4-yl)-3,4-dihydropyrazino[1,2-a]indol-2(1H)-yl)-5-methyl-1-((4-(4-methylpiperazin-1-yl)pyridin-2-yl)methyl)-1H-indole-2-carboxylic acid]",Ki,Mcl-1,< 0.2 nM
same,GI50,[1]; [2],610 nM
"Cc1cc(OCCCc2c3n(c4c(-c5c(C)nn(C)c5C)c(Cl)ccc24)[C@H](C)CN(c2cccc4cc(C(=O)O)n(Cc5cnn(C)n5)c24)C3=O)cc(C)c1Cl [Example 570, (R)-7-(7-chloro-10-(3-(4-chloro-3,5-dimethylphenoxy)propyl)-4-methyl-1-oxo-6-(1,3,5-trimethyl-1H-pyrazol-4-yl)-3,4-dihydropyrazino[1,2-a]indol-2(1H)-yl)-1-((2-methyl-2H-1,2,3-triazol-4-yl)methyl)-1H-indole-2-carboxylic acid]",Ki,Mcl-1,< 0.2 nM
same,GI50,[1]; [2],560 nM
"CCN(C)c1cc(N2C[C@@H](C)n3c(c(CCCOc4cc(C)c(Cl)c(C)c4)c4ccc(Cl)c(-c5c(C)nn(C)c5C)c43)C2=O)c2c(c1)cc(C(=O)O)n2C [Example 680, (R)-7-(7-chloro-10-(3-(4-chloro-3,5-dimethylphenoxy)propyl)-4-methyl-1-oxo-6-(1,3,5-trimethyl-1H-pyrazol-4-yl)-3,4-dihydropyrazino[1,2-a]indol-2(1H)-yl)-5-(ethyl(methyl)amino)-1-methyl-1H-indole-2-carboxylic acid]",Ki,Mcl-1,0.33 nM
same,GI50,[1]; [2],610 nM
"COc1cc(N2C[C@@H](C)n3c(c(CCCOc4cc(C)c(Cl)c(C)c4)c4ccc(Cl)c(-c5c(C)ncnc5C)c43)C2=O)c2c(c1)cc(C(=O)O)n2Cc1cccc(C)n1 [Example 572, (R)-7-(7-chloro-10-(3-(4-chloro-3,5-dimethylphenoxy)propyl)-6-(4,6-dimethylpyrimidin-5-yl)-4-methyl-1-oxo-3,4-dihydropyrazino[1,2-a]indol-2(1H)-yl)-5-methoxy-1-((6-methylpyridin-2-yl)methyl)-1H-indole-2-carboxylic acid]",Ki,Mcl-1,< 0.2 nM
same,GI50,[1]; [2],300 nM
"Cc1cccc(Cn2cnc(-c3ccc4c(c3)c(N3C[C@@H](C)n5c(c(CCCOc6cc(C)c(Cl)c(C)c6)c6ccc(Cl)c(-c7c(C)nn(C)c7C)c65)C3=O)cn4CC(=O)N(C)C)n2)n1 [Example 639, (R)-2-(3-(7-Chloro-10-(3-(4-chloro-3,5-dimethylphenoxy)propyl)-4-methyl-1-oxo-6-(1,3,5-trimethyl-1H-pyrazol-4-yl)-3,4-dihydropyrazino[1,2-a]indol-2(1H)-yl)-5-(1-((6-methylpyridin-2-yl)methyl)-1H-1,2,4-triazol-3-yl)-1H-indol-1-yl)-N,N-dimethylacetamide]",Ki,Mcl-1,4.2 nM
same,GI50,[1]; [2],900 nM
"Cc1cc(OCCCc2c3n(c4c(-c5c(C)nn(C)c5C)c(Cl)ccc24)[C@H](C)CN(c2cn(C)c4ccc(-c5nc(C)n(C)n5)cc24)C3=O)cc(C)c1Cl [Example 643, (R)-7-Chloro-10-(3-(4-chloro-3,5-dimethylphenoxy)propyl)-2-(5-(1,5-dimethyl-1H-1,2,4-triazol-3-yl)-1-methyl-1H-indol-3-yl)-4-methyl-6-(1,3,5-trimethyl-1H-pyrazol-4-yl)-3,4-dihydropyrazino[1,2-a]indol-1(2H)-one]",Ki,Mcl-1,1.3 nM
same,GI50,[1]; [2],340 nM
"Cc1cc(OCCCc2c3n(c4c(-c5c(C)nn(C)c5C)c(Cl)ccc24)[C@H](C)CN(c2cc(COCc4cscn4)cc4cc(C(=O)O)n(C)c24)C3=O)cc(C)c1Cl [Example 688, (R)-7-(7-chloro-10-(3-(4-chloro-3,5-dimethylphenoxy)propyl)-4-methyl-1-oxo-6-(1,3,5-trimethyl-1H-pyrazol-4-yl)-3,4-dihydropyrazino[1,2-a]indol-2(1H)-yl)-1-methyl-5-((thiazol-4-ylmethoxy)methyl)-1H-indole-2-carboxylic acid]",Ki,Mcl-1,0.22 nM
same,GI50,[1]; [2],430 nM
"Cc1cc(OCCCc2c3n(c4c(-c5c(C)nn(C)c5C)c(Cl)ccc24)[C@H](C)CN(c2cn(C[C@H]4CCCN4C)c4ccc(C(=O)O)cc24)C3=O)cc(C)c1Cl [Example 694, 3-((R)-7-chloro-10-(3-(4-chloro-3,5-dimethylphenoxy)propyl)-4-methyl-1-oxo-6-(1,3,5-trimethyl-1H-pyrazol-4-yl)-3,4-dihydropyrazino[1,2-a]indol-2(1H)-yl)-1-(((R)-1-methylpyrrolidin-2-yl)methyl)-1H-indole-5-carboxylic acid]",Ki,Mcl-1,< 0.2 nM
same,GI50,[1]; [2],320 nM
"Cc1cc(N2C[C@@H](C)n3c(c(CCCOc4cc(C)c(Cl)c(C)c4)c4ccc(Cl)c(-c5c(C)nn(C)c5C)c43)C2=O)c2c(c1)cc(C(=O)O)n2Cc1cc(N2CCOCC2)ccn1 [Example 500, (R)-7-(7-chloro-10-(3-(4-chloro-3,5-dimethylphenoxy)propyl)-4-methyl-1-oxo-6-(1,3,5-trimethyl-1H-pyrazol-4-yl)-3,4-dihydropyrazino[1,2-a]indol-2(1H)-yl)-5-methyl-1-((4-morpholinopyridin-2-yl)methyl)-1H-indole-2-carboxylic acid]",Ki,Mcl-1,< 0.2 nM
same,GI50,[1]; [2],330 nM
"Cc1cc(OCCCc2c3n(c4c(-c5c(C)nn(C)c5C)c(Cl)ccc24)[C@H](C)CN(c2cc(OCc4ccccc4)cc4cc(C(=O)O)n(Cc5ccccn5)c24)C3=O)cc(C)c1Cl [Example 588, (R)-5-(benzyloxy)-7-(7-chloro-10-(3-(4-chloro-3,5-dimethylphenoxy)propyl)-4-methyl-1-oxo-6-(1,3,5-trimethyl-1H-pyrazol-4-yl)-3,4-dihydropyrazino[1,2-a]indol-2(1H)-yl)-1-(pyridin-2-ylmethyl)-1H-indole-2-carboxylic acid]",Ki,Mcl-1,1.4 nM
same,GI50,[1]; [2],1400 nM
"Cc1cc(OCCCc2c3n(c4c(-c5c(C)nn(C)c5C)c(Cl)ccc24)[C@H](C)CN(c2cc(COCCN(C)C)cc4cc(C(=O)O)n(C)c24)C3=O)cc(C)c1Cl [Example 614, (R)-7-(7-chloro-10-(3-(4-chloro-3,5-dimethylphenoxy)propyl)-4-methyl-1-oxo-6-(1,3,5-trimethyl-1H-pyrazol-4-yl)-3,4-dihydropyrazino[1,2-a]indol-2(1H)-yl)-5-((2-(dimethylamino)ethoxy)methyl)-1-methyl-1H-indole-2-carboxylic acid]",Ki,Mcl-1,< 0.2 nM
same,GI50,[1]; [2],690 nM
"Cc1cccc(Cn2cc(C(=O)O)c3cccc(N4C[C@@H](C)n5c(c(CCCOc6cc(C)c(Cl)c(C)c6)c6ccc(Cl)c(-c7c(C)nn(C)c7C)c65)C4=O)c32)n1 (single isomer, unassigned) [Example 494]",Ki,Mcl-1,0.3 nM
same,GI50,"[1]; read-out: GI50 on cellular proliferation of H929 human cancer cell lines, H929 cells, 72 h, Cell TiterGlo, 10% FBS",450 nM
"COc1cc(N2C[C@@H](C)n3c(c(CCCOc4cc(C)c(Cl)c(C)c4)c4ccc(Cl)c(-c5c(C)nn(C)c5C)c43)C2=O)c2c(c1)cc(C(=O)O)n2Cc1cccc(C)n1 [Example 536, (R)-7-(7-Chloro-10-(3-(4-chloro-3,5-dimethylphenoxy)propyl)-4-methyl-1-oxo-6-(1,3,5-trimethyl-1H-pyrazol-4-yl)-3,4-dihydropyrazino[1,2-a]indol-2(1H)-yl)-5-methoxy-1-((6-methylpyridin-2-yl)methyl)-1H-indole-2-carboxylic acid]",Ki,Mcl-1,< 0.2 nM
same,GI50,[1]; [2],< 200 nM
"Cc1cc(OCCCc2c3n(c4c(-c5c(C)nn(C)c5C)c(Cl)ccc24)[C@H](C)CN(c2cn(CCN4CCOCC4)c4ccc(-c5ncn(-c6ncccn6)n5)cc24)C3=O)cc(C)c1Cl [Example 720, (R)-7-Chloro-10-(3-(4-chloro-3,5-dimethylphenoxy)propyl)-4-methyl-2-(1-(2-morpholinoethyl)-5-(1-(pyrimidin-2-yl)-1H-1,2,4-triazol-3-yl)-1H-indol-3-yl)-6-(1,3,5-trimethyl-1H-pyrazol-4-yl)-3,4-dihydropyrazino[1,2-a]indol-1(2H)-one]",Ki,Mcl-1,0.51 nM
same,GI50,[1]; [2],220 nM
"COCCn1cc(N2C[C@@H](C)n3c(c(CCCOc4cc(C)c(Cl)c(C)c4)c4ccc(Cl)c(-c5c(C)nn(C)c5C)c43)C2=O)c2cc(-c3ncn(CCN4CCN(C)CC4)n3)ccc21 [Example 602, (R)-7-Chloro-10-(3-(4-chloro-3,5-dimethylphenoxy)propyl)-2-(1-(2-methoxyethyl)-5-(1-(2-(4-methylpiperazin-1-yl)ethyl)-1H-1,2,4-triazol-3-yl)-1H-indol-3-yl)-4-methyl-6-(1,3,5-trimethyl-1H-pyrazol-4-yl)-3,4-dihydropyrazino[1,2-a]indol-1(2H)-one]",Ki,Mcl-1,5.9 nM
same,GI50,[1]; [2],430 nM
"COc1cc(N2C[C@@H](C)n3c(c(CCCOc4cc(C)c(Cl)c(C)c4)c4ccc(Cl)c(-c5c(C)ncnc5C)c43)C2=O)c2c(c1)cc(C(=O)O)n2C [Example 535, (R)-7-(7-Chloro-10-(3-(4-chloro-3,5-dimethylphenoxy)propyl)-6-(4,6-dimethylpyrimidin-5-yl)-4-methyl-1-oxo-3,4-dihydropyrazino[1,2-a]indol-2(1H)-yl)-5-methoxy-1-methyl-1H-indole-2-carboxylic acid]",Ki,Mcl-1,< 0.2 nM
same,GI50,[1]; [2],280 nM
